# Experimental data taken from PubChem BioAssay AID2305 (GlaxoSmithKline (GSK), 2010).
# Test system: P. falciparum 3D7 growth, pLDH absorbance
# Experiment: blood-stage malaria parasite growth potency – strain 3D7, dose response (AID 2305)
row,Compound,IC50 [nM]
1,CC(C)C[C@H](NC(=O)c1cccc(F)c1)C(=O)N[C@H](/C=N/NC(=O)c1ccccc1)CCc1ccccc1,710
2,CSC1=NC(=Nc2c(C)cccc2C)C2(CCC(C(C)(C)C)CC2)N1c1ccc(O)cc1 (configuration not stated),250
3,C[C@@H](Nc1nc(NCc2ccccc2)c2sccc2n1)c1ccccc1,920
4,Cc1nc2ccccc2c(=O)n1N=Cc1ccccc1[N+](=O)[O-],220
5,Cc1cccc(C)c1C1CCN(CCCCNC(=O)c2cc3ccccc3[nH]2)CC1,890
6,COc1ccc(F)cc1-c1ccc(C(=O)N2CCCN(c3ccc(C(F)(F)F)cn3)CC2)cc1,160
7,COc1ccc2nccc([C@@H](O)CN3CCC(NCc4ccc(OC)c(NC=O)c4)CC3)c2c1,750
8,O=C(C=Cc1ccc(F)cc1)NC1CCC(CCN2CCc3ccc(-c4cnccn4)cc3CC2)CC1 (configuration not stated),690
9,CCCc1cnc2nc(N)nc(N)c2c1C,1120
10,CCc1nc(N)nc(N)c1-c1ccc(C(C)(C)C)cc1,230
11,COc1ccc(-c2nonc2NC(=O)c2cccc(Cl)c2)cc1OC,880
12,CC(C)[C@@H](NC(=O)NC1CCC(CCN2[C@@H]3CC[C@H]2CC(OC(=O)C(CO)c2ccccc2)C3)CC1)C(O)(c1ccccc1)c1ccccc1 (some centres not stated),810
13,COc1cc(Cc2cnc(N)nc2N)c2ccsc2c1OC,1070
14,COc1ccc(-c2cnc3ccc(N4CCCC4)nn23)cc1OC,770
15,CCCNC[C@@H](O)[C@H](Cc1ccccc1)NC(=O)c1cc(NCC)cc(N2CCCC2=O)c1,760
16,CC(C)OC(=O)c1ccccc1S(N)(=O)=O,670
17,COc1ccc2nccc([C@@H](O)CN3CCC(NC(=O)/C=C/c4ccc5ccccc5n4)CC3)c2c1,990
18,FC(F)(F)c1ccc(CNCC2CCN(Cc3ccc4c(c3)OCO4)CC2)cc1,1360
19,CCCCCCCN1CC[C@H](NC(=O)Nc2ccnc3ccc(OC)cc23)[C@H](C(=O)OCC)C1,430
20,CCc1ccccc1NC(=O)CN1CCN(c2ncnc3scc(-c4ccc(F)cc4)c23)CC1,700
21,CN(C)CCOc1ccc2c(c1)CN(C)CC2c1ccccc1 (configuration not stated),1110
22,O=[N+]([O-])c1ccc2c(-c3ccccc3)c(-c3ccccc3)n(O)c2c1,990
23,COc1ccc2ncc(F)c(CCN3CC[C@@H](CNCc4cc(C)c5c(c4)OCCO5)C3)c2n1,890
24,Cc1cc(C)c(C(=O)Nc2ccc3nc(C)cc(N)c3c2)c(C)c1,1090

row,Compound,IC50 [nM]
1,O=C(NC(c1ccccc1)c1ccc2cccnc2c1O)c1ccccc1 (configuration not stated),430
2,CCOC(=O)c1cccc(NC(=O)Nc2cc(C)nc3ccccc23)c1,290
3,O=C(NCCc1ccccc1)N(Cc1ccccc1-c1ccc(CNCCc2ccccc2)cc1)C1CCN(Cc2ccccc2)CC1,720
4,Cc1ccc(CNC(=O)[C@H](CCCN)Nc2cc(C)nc(NCC3CCCCC3)n2)cc1,1220
5,CS(=O)(=O)N1CC2(CCN(CCC(NC(=O)Nc3ccccc3)c3ccc(Cl)c(Cl)c3)CC2)c2ccccc21 (configuration not stated),820
6,O=C(Nc1ccc(-c2cccc(-c3nc4ccc(C(F)(F)F)cc4[nH]3)c2)cc1)c1csnn1,800
7,COc1cccc([C@@H](CC(=O)Nc2cc(C(F)(F)F)ccc2OC)Nc2ccc(C#N)c3ccccc23)c1,990
8,Cc1ccc(NC(=O)N2CCCN(CCCCCNC(=O)/C=C/c3ccc(Cl)c(Cl)c3)CC2)cc1,760
9,O=C(NCCCCCN1CCC(c2c[nH]c3ccccc23)CC1)Nc1ccc(I)cc1,990
10,O=C(Nc1ccc(N2CCN(C(=O)C=Cc3ccccc3)CC2)c(Cl)c1)c1ccc([N+](=O)[O-])o1,860
11,Cc1cc(-c2ccc(CNCc3ccc(F)cc3)cc2)ccc1S(=O)(=O)NCCN1CCCC1,720
12,Cc1cccc2[nH]c(-c3ccc(-c4ccc(NC(=O)CN5CCN(C)CC5)cc4)cc3)nc12,790
13,O=C(c1cccc(-c2noc(C(F)(F)F)n2)c1)N1CCN(c2ccncc2)CC1,230
14,Cc1cc2cc(-c3ccc(CN)cc3)ccc2nc1N,1130
15,CC(CN1CCN(C)CC1)C(=O)Nc1ccc(-c2ccc(-c3nc4ccccc4[nH]3)s2)cc1 (configuration not stated),640
16,O=C(N[C@H]1CCN(Cc2ccc(OCCCN3CCCCC3)cc2)C1)c1ccc(Cl)c(Cl)c1,780
17,CNC(=O)c1cnc(Nc2ccc(N3CCN(C)CC3)cc2)nc1Nc1cccc(OC(C)C)c1,150
18,COc1ccc(CNc2nc(NCc3ccc(C(F)(F)F)cc3)c3cc(OC)c(OC)cc3n2)cc1OC,210
19,CC(Cc1ccc(COc2ccc(CC(CO)NCCc3cccc(Cl)c3)cc2)cc1)NCCc1cccc(Cl)c1 (configuration not stated),820
20,Cc1cccc2[nH]c(-c3cccc(-c4ccc(NC(=O)C(C)CN(C)C)cc4)c3)nc12 (configuration not stated),220
21,COc1cc2c(cc1CCNCCCCNCCc1cc3c(cc1OC)CCCC3)CCCC2,1000
22,COc1ccc(-c2ccc(NC(=O)c3cccc(Cl)c3)c(F)c2)cc1CNC(C)C,890
23,Cc1ccc(C(=O)Nc2ccc(Cl)c(N3CCN(CCc4ccccc4)CC3)c2)cc1,930
24,N=C(N)c1ccc(NC(=O)Cc2nc3ccc(C(=N)N)cc3[nH]2)cc1,1370

row,Compound,IC50 [nM]
1,NOCCCCOc1ccccc1,180
2,COc1cccc(OC)c1-c1ccccc1NC(=O)N1CCCc2cc(C)ccc21,820
3,CC(C)(C)c1ccc(C(=O)Nc2ccc(NC(=O)c3ccc([N+](=O)[O-])o3)cc2)cc1,840
4,Cc1cccc2[nH]c(-c3ccc(-c4ccc(CN5CCN(CCN6CCOCC6)CC5)cc4)cc3)nc12,230
5,COc1ccc(N2CCN(CCCN3CCN(C(=O)c4ccc(/C=C/c5ccc(Cl)c(Cl)c5)cc4)CC3)CC2)c(OC)c1,910
6,CCOC(=O)/C(=N\OC(C)(C)C(=O)NCc1ccc(O)c(O)c1)c1csc(NC(c2ccccc2)(c2ccccc2)c2ccccc2)n1,170
7,Cc1cc(N)nc2ccc(CNCCc3ccccc3Br)cc12,120
8,CN(C)CCN(Cc1ccccc1-c1ccc(CNCCc2ccccc2)cc1)C(=O)c1ccccc1,1700
9,Cc1cc(I)ccc1Nc1nc2nonc2nc1Nc1ccc(I)cc1C,510
10,CN(C)CCOc1ccc(-c2cc(-c3ccc(Cl)c(O)c3)c(-c3ccncc3)o2)cc1,1450
11,Cc1cc(OCCCN2CCC(NS(=O)(=O)c3ccc(C(F)(F)F)cc3)CC2)c2ccccc2n1,1220
12,CN(C)Cc1c(O)ccc2[nH]c(-c3ccc(F)cc3F)nc12,1300
13,CCc1c(CCNCCCCCCNCCc2ccc(OC)c(OC)c2C)ccc(OC)c1OC,1570
14,CN(C)C(=O)c1ccc(CN(Cc2cccc(OC(C)(C)C)c2)Cc2ccc3c(c2)OCCO3)cc1,570
15,COc1ccc2ncc(C#N)c(CCN3CCC(NCc4cnc5c(c4)OCCO5)CC3)c2n1,600
16,COc1ccc2[nH]cc(C3CCN(CCCCNC(=O)c4ccc(NC(=O)c5ccc(Cl)cc5)cc4)CC3)c2c1,1020
17,Nc1nc(N)c2c3c(ccc2n1)CCC3,930
18,Cc1ccc(C)c2sc(N3CCN(C(=O)c4ccc([N+](=O)[O-])o4)CC3)nc12,820
19,COc1ccc(C(=O)[C@H]2C[C@@H]2CN2CC=C(c3c[nH]c4ccc(OC)nc34)CC2)cc1,480
20,CCCCCCn1c2c(c(=N)c3c1CCC3)CCCC2,290
21,N#CC(c1ccc(Br)cc1)c1ccc2c(C(F)(F)F)cc(C(F)(F)F)nc2n1 (configuration not stated),440
22,Cc1ccc(-c2nc(N3CCN(C(=O)c4ccco4)CC3)c3ccccc3n2)cc1,970
23,COc1ccc(C(=O)Nc2cc(Cl)c3c(c2)C2CCCN2CC3)cc1C(F)(F)F (configuration not stated),750
24,COc1ccc(-c2nc(NC(=O)Cc3ccc4c(c3)OCCO4)sc2C)cc1,240
